Earlier results as cited in patent publication US20050244498A1 (priority 2001, published 2005).

Conditions: in vivo

SMILES	elimination half-life
COc1ccc(C(CN(C)C)C2(O)CCCCC2)cc1 (racemic) [venlafaxine, (R/S)-1-[2-(dimethylamino)-1-(4methoxyphenyl)ethyl]cyclohexanol]	about 4 hours
CN(C)CC(c1ccc(O)cc1)C1(O)CCCCC1 (centres unmarked) [active metabolite, O-desmethylvenlafaxine]	about 8 hours
